“Also recorded” adds a separate entry of the source. Like-named read-outs stand apart in the source and are kept apart here.
What was measured:
[1] = Phase 1 part 1 single ascending dose: pharmacokinetics; type: in vivo, human; conditions: for half-life / Tmax: male, human, plasma, oral
Experimental: A 4-part, Phase 1 randomized, double-blind, placebo-controlled, first-in-human study was performed to determine the safety, tolerability, PK, and PD of single ascending doses (SADs; part 1) and multiple ascending doses (MADs; part 2) of Compound A HBr in healthy participants. The study also assessed whether there were sex (part 3) and age-related (part 4) effects on the PK of a single dose of Compound A HBr. The study was approved by the local independent ethics committee; the BEBO foundation in Assen, Netherlands; and the Central Committee on Research Involving Human Subjects in The Hague, Netherlands; and conducted according to the provisions of the Declaration of Helsinki. Written informed consent was obtained from each study participant before conducting any protocol-related procedures.
In part 1, Compound A HBr or placebo was administered to 64 healthy Caucasian men aged 18 to 55 years (inclusive) in 8 cohorts of 8 participants each. In each cohort, 6 participants were randomized to receive a single dose of Compound A HBr and 2 participants were randomized to receive matching placebo. All cohorts included 2 sentinel participants of whom 1 received Compound A HBr and 1 received matching placebo. The remaining 6 participants, of whom 5 received Compound A HBr and 1 received placebo, were dosed ≥24 hours following the sentinel participants. The dosing cohorts were 5, 10, 20, 50, 100, 200, 400, and 800 mg. Doses were administered in an ascending order per cohort, with a minimum 10-day interval between consecutive dose levels. Participants received a single dose of Compound A HBr or placebo in the fasted state.
Plasma PK parameters were derived by non-compartmental analysis using WinNonlin® (version 6.3). Dose proportionality was assessed using the power model with AUC0-∞, AUC0-last, and Cmax for part 1 (SAD) and with AUC0-last, AUC0-∞, AUC0-τ, and Cmax for part 2 (MAD). A linear model (ln(Y)=α+β×ln(X), where Y is the pharmacokinetic parameter and X is the dose) was used to fit the power model, after log-transformation of the parameters. Dose proportionality was concluded if the 95% confidence interval (CI) for slope (β) included the value 1.
An analytical method for the determination of Compound A in human plasma (dipotassium ethylenediaminetetraacetic acid [K2-EDTA]) and human urine using solid-phase extraction and high-performance liquid chromatography with mass spectrometric detection was successfully validated over the concentration range 0.1000 ng/mL (lower limit of quantification) to 100.0 ng/mL prior to initiation of the clinical trial. […] For all other analytes, validated quantitative measurement methods were used.

[2] = Phase 1 parts 3 and 4: sex- and age-related effects on PK; type: in vivo, human; conditions: single 100-mg dose; not statistically significant
Experimental: Part 3 of the study evaluated the sex-related effects on the safety, tolerability, and PK of Compound A HBr. In 1 cohort of 8 healthy Caucasian women aged 20 to 35 years (inclusive), 6 participants were randomized to receive a single 100-mg dose of Compound A HBr and 2 participants were randomized to receive matching placebo. Compound A HBr or placebo was administered in the fasted state. The results were compared with those in the cohort at the same dose as in Part 1.
Part 4 of the study evaluated the age-related effects on safety, tolerability, and PK of Compound A HBr. In 1 cohort of 8 healthy Caucasian men aged 68 to 80 years, 6 participants were randomized to receive a single 100-mg dose of Compound A HBr and 2 participants were randomized to receive matching placebo. Compound A HBr or placebo were administered in the fasted state. The results were compared with those in the cohort at the same dose as in Part 1.
A linear model was used to analyze log-transformed AUC and Cmax with sex or age as fixed effects. Difference in least square means (LSM) and corresponding 90% CI were back-transformed to obtain the estimates of geometric mean ratios and their CI for females vs. males and ≥65 years vs. <65 years participants.

[3] = system: plasma cortisol concentrations (PCCs); assay: ACTH-treated cynomolgus monkey model; type: in vivo
Experimental: An adrenocorticotropic hormone (ACTH)-treated cynomolgus monkey model was performed to evaluate the effect of Compound A on plasma cortisol concentrations (PCCs). A dose of Compound A, as free base, that was 100-fold higher than required to reduce PACs (0.3 mg/kg by mouth) was administered, followed immediately by ACTH (50 μg/kg subcutaneously). PACs were also evaluated in the animals. PACs and PCCs were determined by radioimmunoassay and measured during the 24 hours after Compound A administration.

For `CC(=O)N[C@H]1CC[C@H](NC(=O)CN2CCN(c3nncc(-c4ccc(C)cc4)n3)CC2)CC1` [Compound A HBr], the half-life ([1]; single 5 mg, fasted, read-out: T 1/2, mean (SD) (converted)) was 8 h, the half-life ([1]; single 10 mg, fasted, read-out: T 1/2, mean (SD) (converted)) was 8 h and the Tmax ([1]; single 10 mg, fasted, read-out: Tmax, median and range) was 1.25 h. The Tmax ([1]; single 200 mg, fasted, read-out: Tmax, median and range) was 1.25 h, the Tmax ([1]; single 400 mg, fasted, read-out: Tmax, median and range) was 1.25 h and the half-life ([1]; single 800 mg, fasted, read-out: T 1/2, mean (SD) (converted)) was 11 h. For the same compound, the Tmax ([1]; single doses 5 to 800 mg, read-out: Median Tmax values) was 1 to 1.5 h, the half-life ([1]; single doses 5 to 800 mg, read-out: mean t1/2 values) was 7.92 to 10.5 h and the “AUC0-inf, mean (SD)” value ([1]; single 5 mg, fasted) was 231 (25) ng × h/mL. The “Cmax, mean (SD)” value ([1]; single 5 mg, fasted) was 37 (7) ng/mL, the “Tmax, median and range” value ([1]; single 5 mg, fasted) was 1.5 (1-3) h and the “AUC0-inf, mean (SD)” value ([1]; single 10 mg, fasted) was 451 (46) ng × h/mL. For the same compound, the “Cmax, mean (SD)” value ([1]; single 10 mg, fasted) was 76 (20) ng/mL, the “AUC0-inf, mean (SD)” value ([1]; single 20 mg, fasted) was 768 (182) ng × h/mL and the “Cmax, mean (SD)” value ([1]; single 20 mg, fasted) was 141 (76) ng/mL. For the same compound, the “Tmax, median and range” value ([1]; single 20 mg, fasted) was 1.5 (1-3) h, the “AUC0-inf, mean (SD)” value ([1]; single 50 mg, fasted) was 2155 (258) ng × h/mL and the “Cmax, mean (SD)” value ([1]; single 50 mg, fasted) was 573 (206) ng/mL. The “T 1/2, mean (SD)” value ([1]; single 50 mg, fasted) was 9 (2) h, the “Tmax, median and range” value ([1]; single 50 mg, fasted) was 1 (0.5-3) h and the “AUC0-inf, mean (SD)” value ([1]; single 100 mg, fasted) was 5366 (493) ng × h/mL. For the same compound, the “Cmax, mean (SD)” value ([1]; single 100 mg, fasted) was 1211 (248) ng/mL, the “Tmax, median and range” value ([1]; single 100 mg, fasted) was 1.5 (1-3) h and the “AUC0-inf, mean (SD)” value ([1]; single 200 mg, fasted) was 10645 (3486) ng × h/mL. The “Cmax, mean (SD)” value ([1]; single 200 mg, fasted) was 2848 (1015) ng/mL, the “T 1/2, mean (SD)” value ([1]; single 200 mg, fasted) was 10 (4) h and the “AUC0-inf, mean (SD)” value ([1]; single 400 mg, fasted) was 17257 (2907) ng × h/mL. The “Cmax, mean (SD)” value ([1]; single 400 mg, fasted) was 4455 (862) ng/mL, the “AUC0-inf, mean (SD)” value ([1]; single 800 mg, fasted) was 29331 (3623) ng × h/mL and the “Cmax, mean (SD)” value ([1]; single 800 mg, fasted) was 7708 (1617) ng/mL. For the same compound, the “Tmax, median and range” value ([1]; single 800 mg, fasted) was 1.5 (0.5-4) h, the “dose proportionality of AUC0-last and AUC0-∞” value ([1]; single doses 5 to 800 mg) was “dose-proportional increase” and the “AUC higher in female than in male participants” value [2] was 19%. For the same compound, the “AUC lower in men aged ≥65 years vs <65 years” value [2] was roughly 12%, the “Cmax higher in female than in male participants” value [2] was 25% and the “Cmax lower in men aged ≥65 years vs <65 years” value [2] was “approximately 14%”.
With `CC(=O)N[C@H]1CC[C@H](NC(=O)CN2CCN(c3nncc(-c4ccc(C)cc4)n3)CC2)CC1` [Compound A] the “selectivity for CYP11B2 over CYP11B1 in vivo” value ([3]; monkey models, dose ratio) was 100 fold and the “effect on PCCs” value ([3]; single oral dose 100 times greater than the dose that inhibited PAC production, ACTH-loaded monkeys) was “did not affect PCCs; also recorded: PCCs were not affected”.

Reference: patent US20250099475A1, “METHODS OF TREATING HYPERTENSION BY PERIODIC SUPPRESSION OF ALDOSTERONE SYNTHASE” (Mineralys Therapeutics, Inc., priority 2022, published 2025)
